Values of other authors as cited in patent publication US10213389B2 (priority 2005, dated 2019).

Question: Which “solubility in acetone, chloroform, alcohol and ether” value (acetone, chloroform, alcohol, ether) does the source give for “1,4:3,6-dianhydro-D-glucitol dinitrate [Isosorbide dinitrate]” here?
Answer: freely soluble

Question: And the solubility in water (water, described as sparingly soluble)?
Answer: 1.0 g/900 ml
